Tested on: RA patients
Test: Total cholesterol determination, Study 1 (RA patients with inadequate response to methotrexate, add-on to MTX)
Format: in vivo, human
Method: Double-blind, placebo-controlled add on study in subjects with moderately to severely active RA who have an inadequate response to methotrexate (MTX) (oral or parenteral).
595 subjects randomized to one of 6 dose regimens of Compound 1 (dosed as a [Compound 1:HCl:3H2O]) (3 dose levels administered either once or twice daily) or placebo on top of each subject's stable dose of MTX.
Compound 1 (dosed as a [Compound 1:HCl:3H2O]) is dosed for twelve weeks once daily (q.d.) (50 mg, 100 mg or 200 mg) or twice daily (b.i.d.) (25 mg, 50 mg or 100 mg); or placebo.
At Week 12, the subjects on placebo who have not achieved 20% improvement in swollen joint count (SJC66) and tender joint count (TJC68) are re-randomized automatically to receive Compound 1 (dosed as a [Compound 1:HCl:3H2O]) either at 100 mg q.d. or 50 mg b.i.d. doses in a blinded fashion; subjects on 50 mg q.d. who have not achieved 20% improvement in SJC66 and TJC68 will be assigned to 100 mg q.d. and subjects on 25 mg b.i.d. that have not achieved a 20% improvement in SJC66 and TJC68 will be assigned to 50 mg b.i.d. Subjects who switch treatment at week 12 are handled as if they discontinued at week 12 for the purpose of statistical analysis, whereas subjects in the other groups will maintain their randomized treatment until Week 24.
This method is based on the determination of Δ^4 cholestenone after enzymatic cleavage of the cholesterol ester by cholesterol esterase, conversion of cholesterol by cholesterol oxidase, and subsequent measurement by the Trinder reaction of the hydrogen peroxide formed (Allain et al., 1974).
Cholesterol esters are cleaved by the action of cholesterol esterase to yield free cholesterol and fatty acids. Cholesterol oxidase then catalyzes the oxidation of cholesterol to cholest-4-en-3-one and hydrogen peroxide. In the presence of peroxidase, the hydrogen peroxide formed effects the oxidative coupling of phenol and 4-aminophenazone to form a red quinone-imine dye. The color intensity of the dye formed is directly proportional to the cholesterol concentration. It is determined by measuring the increase in absorbance.
Human serum and plasma samples cholesterol determination was done on a Roche/Hitachi Cobas c 701/702 system which automatically calculate the analyte concentration of each sample.

[1] = Study 1 12 weeks results, 2 x 25 mg b.i.d., week 2
[2] = Study 1 12 weeks results, 2 x 25 mg b.i.d., week 4
[3] = Study 1 12 weeks results, 2 x 25 mg b.i.d., week 8
[4] = Study 1 12 weeks results, 2 x 25 mg b.i.d., week 12
[5] = Study 1 12 weeks results, 2 x 50 mg b.i.d., week 1
[6] = Study 1 12 weeks results, 2 x 50 mg b.i.d., week 2
[7] = Study 1 12 weeks results, 2 x 50 mg b.i.d., week 4
[8] = Study 1 12 weeks results, 2 x 50 mg b.i.d., week 8
[9] = Study 1 12 weeks results, 2 x 50 mg b.i.d., week 12
[10] = Study 1 12 weeks results, 2 x 100 mg b.i.d., week 1
[11] = Study 1 12 weeks results, 2 x 100 mg b.i.d., week 2
[12] = Study 1 12 weeks results, 2 x 100 mg b.i.d., week 4
[13] = Study 1 12 weeks results, 2 x 100 mg b.i.d., week 8
[14] = Study 1 12 weeks results, 2 x 100 mg b.i.d., week 12
[15] = Study 1 24 weeks results, continued 50 mg q.d., week 1
[16] = Study 1 24 weeks results, continued 50 mg q.d., week 2
[17] = Study 1 24 weeks results, continued 50 mg q.d., week 4
[18] = Study 1 24 weeks results, continued 50 mg q.d., week 8
[19] = Study 1 24 weeks results, continued 50 mg q.d., week 12
[20] = Study 1 24 weeks results, continued 50 mg q.d., week 16
[21] = Study 1 24 weeks results, continued 50 mg q.d., week 20
[22] = Study 1 24 weeks results, continued 50 mg q.d., week 24

## O=C(Nc1nc2cccc(-c3ccc(CN4CCS(=O)(=O)CC4)cc3)n2n1)C1CC1 [Compound 1, cyclopropanecarboxylic acid {5-[4-(1,1-dioxo-thiomorpholin-4-ylmethyl)-phenyl]-[1,2,4]triazolo[1,5-a]pyridin-2yl}-amide]
Study 1 12 weeks results, 2 x 25 mg b.i.d., week 1
  [total cholesterol] Mean CFB: 0.1 mmol/L
[1]
  [Total cholesterol] Median CFB: 0.10 mmol/L
  [total cholesterol] Mean CFB: 0.1 mmol/L
[2]
  [Total cholesterol] Median CFB: 0.05 mmol/L
  [total cholesterol] Mean CFB: 0.1 mmol/L
[3]
  [Total cholesterol] Median CFB: 0.05 mmol/L
  [total cholesterol] Mean CFB: 0.1 mmol/L
[4]
  [Total cholesterol] Median CFB: 0.13 mmol/L
  [total cholesterol] Mean CFB: 0.2 mmol/L
[5]
  [Total cholesterol] Median CFB: 0.21 mmol/L
  [total cholesterol] Mean CFB: 0.1 mmol/L
[6]
  [Total cholesterol] Median CFB: 0.18 mmol/L
  [total cholesterol] Mean CFB: 0.1 mmol/L
[7]
  [Total cholesterol] Median CFB: 0.28 mmol/L
  [total cholesterol] Mean CFB: 0.3 mmol/L
[8]
  [Total cholesterol] Median CFB: 0.22 mmol/L
  [total cholesterol] Mean CFB: 0.2 mmol/L
[9]
  [Total cholesterol] Median CFB: 0.23 mmol/L
  [total cholesterol] Mean CFB: 0.2 mmol/L
[10]
  [Total cholesterol] Median CFB: 0.28 mmol/L
  [total cholesterol] Mean CFB: 0.3 mmol/L
[11]
  [Total cholesterol] Median CFB: 0.31 mmol/L
  [total cholesterol] Mean CFB: 0.4 mmol/L
[12]
  [Total cholesterol] Median CFB: 0.45 mmol/L
  [total cholesterol] Mean CFB: 0.4 mmol/L
[13]
  [Total cholesterol] Median CFB: 0.55 mmol/L
  [total cholesterol] Mean CFB: 0.6 mmol/L
[14]
  [Total cholesterol] Median CFB: 0.80 mmol/L
  [total cholesterol] Mean CFB: 0.6 mmol/L
Study 1 24 weeks results, continued 25 mg b.i.d, week 1
  [total cholesterol] Mean CFB: 0.11 mmol/L
Study 1 24 weeks results, continued 25 mg b.i.d, week 2
  [total cholesterol] Mean CFB: 0.12 mmol/L
Study 1 24 weeks results, continued 25 mg b.i.d, week 4
  [total cholesterol] Mean CFB: 0.14 mmol/L
Study 1 24 weeks results, continued 25 mg b.i.d, week 8
  [total cholesterol] Mean CFB: 0.15 mmol/L
Study 1 24 weeks results, continued 25 mg b.i.d, week 12
  [total cholesterol] Mean CFB: 0.26 mmol/L
Study 1 24 weeks results, continued 25 mg b.i.d, week 16
  [total cholesterol] Mean CFB: 0.20 mmol/L
Study 1 24 weeks results, continued 25 mg b.i.d, week 20
  [total cholesterol] Mean CFB: 0.27 mmol/L
Study 1 24 weeks results, continued 25 mg b.i.d, week 24
  [total cholesterol] Mean CFB: 0.24 mmol/L
Study 1 24 weeks results, continued 50 mg b.i.d., week 1
  [total cholesterol] Mean CFB: 0.15 mmol/L
Study 1 24 weeks results, continued 50 mg b.i.d., week 2
  [total cholesterol] Mean CFB: 0.14 mmol/L
Study 1 24 weeks results, continued 50 mg b.i.d., week 4
  [total cholesterol] Mean CFB: 0.28 mmol/L
Study 1 24 weeks results, continued 50 mg b.i.d., week 8
  [total cholesterol] Mean CFB: 0.21 mmol/L
Study 1 24 weeks results, continued 50 mg b.i.d., week 12
  [total cholesterol] Mean CFB: 0.23 mmol/L
Study 1 24 weeks results, continued 50 mg b.i.d., week 16
  [total cholesterol] Mean CFB: 0.24 mmol/L
Study 1 24 weeks results, continued 50 mg b.i.d., week 20
  [total cholesterol] Mean CFB: 0.32 mmol/L
Study 1 24 weeks results, continued 50 mg b.i.d., week 24
  [total cholesterol] Mean CFB: 0.34 mmol/L
[15]
  [Total cholesterol] Median CFB: 0.00 mmol/L
  [total cholesterol] Mean CFB: 0.03 mmol/L
[16]
  [Total cholesterol] Median CFB: 0.00 mmol/L
  [total cholesterol] Mean CFB: -0.01 mmol/L
[17]
  [Total cholesterol] Median CFB: 0.05 mmol/L
  [total cholesterol] Mean CFB: 0.05 mmol/L
[18]
  [Total cholesterol] Median CFB: 0.20 mmol/L
  [total cholesterol] Mean CFB: 0.14 mmol/L
[19]
  [Total cholesterol] Median CFB: 0.25 mmol/L
  [total cholesterol] Mean CFB: 0.24 mmol/L
[20]
  [Total cholesterol] Median CFB: 0.25 mmol/L
  [total cholesterol] Mean CFB: 0.21 mmol/L
[21]
  [Total cholesterol] Median CFB: 0.25 mmol/L
  [total cholesterol] Mean CFB: 0.20 mmol/L
[22]
  [Total cholesterol] Median CFB: 0.30 mmol/L
  [total cholesterol] Mean CFB: 0.28 mmol/L
Study 1 24 weeks results, continued 100 mg b.i.d., week 1
  [total cholesterol] Mean CFB: 0.30 mmol/L

Source: US10376520B2, “Methods for the treatment of cardiovascular disorders” (Galapagos NV, priority 2015, dated 2019)
